# Measured values as given in patent publication US9617267B2, “Compounds and methods for kinase modulation, and indications therefor” (Plexxikon Inc., priority 2009, dated 2017).
# Like-named read-outs stand apart in the source and are kept apart here.
# Key:
# [1] = biological target: c-Raf-1 (Homo sapiens, UniProt P04049); experiment: c-Raf-1 kinase activity biochemical assay (AlphaScreen, biotin-MEK1 phosphorylation)
# Experimental: (§1) Compounds to be tested are diluted in dimethyl sulfoxide to a concentration of 0.1 mM. These are serially diluted 15 μL into 30 μL of dimethyl sulfoxide seven times in 96 well plates for a total of 8 dilution points, and for each dilution point 1 μL is added to a well of an assay plate. […] The reaction is started with addition of 10 μL of 200 μM ATP (i.e. final 100 μM ATP). After incubation of the kinase reaction for 45 minutes at room temperature, 5 μL/well of Stop Solution is added (25 mM Hepes pH 7.5, 100 mM EDTA, 0.01% BSA with donor beads (Streptavidin coated beads, Perkin Elmer), acceptor beads (Protein A coated, Perkin Elmer), and anti phosphor MEK1/2 antibody (CellSignal), each at final concentration 10 μg/mL). The plates are incubated for 3 hours at room temperature and read on Envision reader (Perkin Elmer). […] The signal vs. compound concentration is used to determine the IC50.
# [2] = biological target: CYP2C9 (Homo sapiens (Human), UniProt P11712); experiment: CYP enzyme inhibition, fluorescent substrate (MFC)
# Sequence of CYP2C9 (P11712 whole entry): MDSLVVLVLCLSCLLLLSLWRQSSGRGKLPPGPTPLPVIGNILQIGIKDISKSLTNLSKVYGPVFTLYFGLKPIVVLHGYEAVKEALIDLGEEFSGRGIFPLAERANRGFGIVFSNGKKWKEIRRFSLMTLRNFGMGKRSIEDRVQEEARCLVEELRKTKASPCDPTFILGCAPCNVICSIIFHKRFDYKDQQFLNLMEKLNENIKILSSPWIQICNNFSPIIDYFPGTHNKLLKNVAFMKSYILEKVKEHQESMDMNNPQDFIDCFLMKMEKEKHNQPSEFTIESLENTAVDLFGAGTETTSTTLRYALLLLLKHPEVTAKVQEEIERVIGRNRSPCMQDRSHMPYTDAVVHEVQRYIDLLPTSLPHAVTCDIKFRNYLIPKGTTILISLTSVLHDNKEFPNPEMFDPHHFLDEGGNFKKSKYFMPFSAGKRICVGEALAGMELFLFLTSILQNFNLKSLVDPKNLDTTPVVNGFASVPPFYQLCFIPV
# Experimental: (§2) CYP (Cytochrome P450) enzymes are the major drug metabolizing enzymes present in the liver. The inhibition of CYP enzyme activity (IC50) for each of CYP1A2, CYP2C19, CYP2C9, CYP2D6, CYP3A4(BFC) and CYP3A4(BQ) is determined for compounds, where inhibition of metabolism of a known substrate leads to a decrease in the fluorescence of the metabolized product. The fluorescence of the product is monitored as a function of compound concentration.
# (§3) Compounds are dissolved in dimethyl sulfoxide to a concentration of 100 mM. These are diluted 1 μL into 82 μL of acetonitrile. […] These are then serially diluted 1:1 (160 μL to 160 μL co-factor mix) for a total of 10 points. A 10 μL aliquot of this final mixture is dispensed into 384 well assay plates and incubated for 10 minutes at 37° C. […] Assay plates are incubated at 37° C. […] The signal versus compound concentration is used to determine the IC50. The enzymes and substrates for this assay are obtained from BD Biosciences.
# [3] = test system: B-Raf; experiment: B-Raf kinase activity biochemical assay (AlphaScreen, biotin-MEK1 phosphorylation); details: for Biochemical activity ratio B/V600E: ratio of IC50 B-Raf / B-Raf V600E; for Biochemical activity ratio B/C: ratio of IC50 B-Raf / c-Raf-1
# Experimental: as §1
# [4] = biological target: B-Raf (Homo sapiens (Human), UniProt P15056); experiment: as above; details: B-Raf
# Sequence of B-Raf (Homo sapiens (Human), UniProt P15056) (P15056 whole entry): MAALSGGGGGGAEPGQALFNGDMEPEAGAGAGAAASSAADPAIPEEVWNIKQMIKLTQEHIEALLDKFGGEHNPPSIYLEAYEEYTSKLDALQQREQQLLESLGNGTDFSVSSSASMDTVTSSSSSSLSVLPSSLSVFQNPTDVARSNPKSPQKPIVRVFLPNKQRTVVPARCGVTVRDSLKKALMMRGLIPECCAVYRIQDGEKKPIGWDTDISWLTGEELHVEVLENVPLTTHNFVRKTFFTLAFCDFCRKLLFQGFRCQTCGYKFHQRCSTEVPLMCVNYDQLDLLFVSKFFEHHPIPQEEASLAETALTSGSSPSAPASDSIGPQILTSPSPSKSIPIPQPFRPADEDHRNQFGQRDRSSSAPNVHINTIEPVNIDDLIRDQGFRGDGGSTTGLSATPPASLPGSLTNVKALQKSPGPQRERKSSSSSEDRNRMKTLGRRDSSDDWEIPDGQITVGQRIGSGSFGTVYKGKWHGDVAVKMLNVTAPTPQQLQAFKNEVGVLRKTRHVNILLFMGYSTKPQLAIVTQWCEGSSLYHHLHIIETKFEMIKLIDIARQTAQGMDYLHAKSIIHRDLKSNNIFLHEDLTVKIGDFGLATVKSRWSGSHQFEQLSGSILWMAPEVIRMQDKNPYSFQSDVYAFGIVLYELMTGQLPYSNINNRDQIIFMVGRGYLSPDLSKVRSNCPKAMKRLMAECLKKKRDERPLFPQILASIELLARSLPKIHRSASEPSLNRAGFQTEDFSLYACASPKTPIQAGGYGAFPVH
# Experimental: as §1
# [5] = biological target: B-Raf V600E (Homo sapiens (Human), UniProt P15056, V600E); experiment: B-Raf V600E kinase activity biochemical assay (AlphaScreen, biotin-MEK1 phosphorylation); details: for IC50: B-Raf V600E; for Biochemical activity ratio V600E/C: ratio of IC50 B-Raf V600E / c-Raf-1
# Sequence of B-Raf V600E (P15056 whole entry V600E): as the sequence (P15056 whole entry) above, with V600E counted along it
# Experimental: as §1
# [6] = biological target: CYP2C19 (Homo sapiens (Human), UniProt P33261); experiment: CYP enzyme inhibition, fluorescent substrate (CEC)
# Sequence of CYP2C19 (P33261 whole entry): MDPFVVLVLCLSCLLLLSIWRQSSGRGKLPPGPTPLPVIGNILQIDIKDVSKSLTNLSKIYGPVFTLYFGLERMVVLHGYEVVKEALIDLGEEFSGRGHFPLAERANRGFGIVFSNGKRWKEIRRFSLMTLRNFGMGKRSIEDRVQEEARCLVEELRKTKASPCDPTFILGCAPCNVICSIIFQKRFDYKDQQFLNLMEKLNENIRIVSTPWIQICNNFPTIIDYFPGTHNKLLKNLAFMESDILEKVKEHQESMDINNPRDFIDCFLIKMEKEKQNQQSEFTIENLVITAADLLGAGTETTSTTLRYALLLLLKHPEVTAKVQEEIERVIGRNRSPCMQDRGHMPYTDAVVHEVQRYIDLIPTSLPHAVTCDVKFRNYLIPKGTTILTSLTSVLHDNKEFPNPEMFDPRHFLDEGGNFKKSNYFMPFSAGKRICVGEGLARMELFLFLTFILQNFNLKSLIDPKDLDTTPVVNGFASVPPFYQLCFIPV
# Experimental: as §2, §3
# [7] = biological target: CYP3A4(BFC) (Homo sapiens (Human), UniProt P08684); experiment: CYP enzyme inhibition, fluorescent substrate BFC
# Sequence of CYP3A4(BFC) (P08684 whole entry): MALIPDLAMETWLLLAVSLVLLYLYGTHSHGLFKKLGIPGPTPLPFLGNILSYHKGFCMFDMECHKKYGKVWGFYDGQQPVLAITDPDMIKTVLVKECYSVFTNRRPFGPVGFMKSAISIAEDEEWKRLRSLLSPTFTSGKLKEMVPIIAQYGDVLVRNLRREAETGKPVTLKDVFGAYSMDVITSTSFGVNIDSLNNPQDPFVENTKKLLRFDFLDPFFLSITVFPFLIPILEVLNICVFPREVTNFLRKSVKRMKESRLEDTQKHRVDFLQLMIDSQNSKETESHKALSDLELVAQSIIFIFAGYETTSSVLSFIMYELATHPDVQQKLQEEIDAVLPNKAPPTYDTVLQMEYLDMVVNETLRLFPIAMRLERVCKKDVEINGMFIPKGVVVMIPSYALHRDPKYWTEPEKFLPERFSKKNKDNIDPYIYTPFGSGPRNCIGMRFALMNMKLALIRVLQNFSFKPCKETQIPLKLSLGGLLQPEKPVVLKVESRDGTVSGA
# Experimental: as §2, §3
# [8] = biological target: CYP1A2 (Homo sapiens (Human), UniProt P05177); experiment: CYP enzyme inhibition, fluorescent substrate (CEC)
# Sequence of CYP1A2 (P05177 whole entry): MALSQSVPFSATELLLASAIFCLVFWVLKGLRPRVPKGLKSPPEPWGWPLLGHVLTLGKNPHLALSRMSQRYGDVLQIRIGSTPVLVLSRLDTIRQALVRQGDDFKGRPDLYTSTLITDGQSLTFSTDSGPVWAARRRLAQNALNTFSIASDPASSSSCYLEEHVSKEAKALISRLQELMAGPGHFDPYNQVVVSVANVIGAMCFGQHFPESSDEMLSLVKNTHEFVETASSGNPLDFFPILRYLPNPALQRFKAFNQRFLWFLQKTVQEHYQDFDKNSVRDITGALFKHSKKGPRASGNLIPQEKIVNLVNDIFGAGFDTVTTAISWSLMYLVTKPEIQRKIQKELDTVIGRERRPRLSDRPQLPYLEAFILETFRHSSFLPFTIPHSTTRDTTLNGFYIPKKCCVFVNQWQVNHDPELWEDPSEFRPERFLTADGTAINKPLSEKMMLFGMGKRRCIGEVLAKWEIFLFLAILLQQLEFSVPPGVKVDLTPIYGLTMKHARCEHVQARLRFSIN
# Experimental: as §2
# (§4) Compounds are dissolved in dimethyl sulfoxide to a concentration of 100 mM. These are diluted 1 μL into 82 μL of acetonitrile. An 11 μL aliquot of this solution is then added to 204 μL of cofactor mix (1.3% NADPH Regeneration system Solution A, 1.04% NADPH Regeneration system Solution B from BD Biosciences, 5% acetonitrile and 0.05% dimethyl sulfoxide). These are then serially diluted 1:1 (160 μL to 160 μL co-factor mix) for a total of 10 points. A 10 μL aliquot of this final mixture is dispensed into 384 well assay plates and incubated for 10 minutes at 37° C. Enzyme and substrate mix (10 μL; 0.5 pmol CYP1A2/5 μM CEC; 1.0 pmol CYP2C9/75 μM MFC; 0.5 pmol CYP2C19/25 μM CEC; 1.5 pmol CYP2D6/1.5 μM AMMC; 1.0 pmol CYP3A4/50 μM BFC; or 1.0 pmol CYP3A4/40 μM BQ) is added to these assay plates. Assay plates are incubated at 37° C. (CYP1A2-15 min; CYP2C9-45 min; CYP2C19, 2D6 and 3A4-30 min) and read in a Tecan Safire 2 plate reader (CYP1A2, 2C19 and 3A4 409 ex/460 em; CYP2C9 and 2D6 409 ex/530 em). The signal versus compound concentration is used to determine the IC50. The enzymes and substrates for this assay are obtained from BD Biosciences.
# [9] = biological target: CYP2D6 (Homo sapiens (Human), UniProt P10635); experiment: CYP enzyme inhibition, fluorescent substrate (AMMC); format: in vitro ADME; details: read-out: Cyp IC50 2D6
# Sequence of CYP2D6 (P10635 whole entry): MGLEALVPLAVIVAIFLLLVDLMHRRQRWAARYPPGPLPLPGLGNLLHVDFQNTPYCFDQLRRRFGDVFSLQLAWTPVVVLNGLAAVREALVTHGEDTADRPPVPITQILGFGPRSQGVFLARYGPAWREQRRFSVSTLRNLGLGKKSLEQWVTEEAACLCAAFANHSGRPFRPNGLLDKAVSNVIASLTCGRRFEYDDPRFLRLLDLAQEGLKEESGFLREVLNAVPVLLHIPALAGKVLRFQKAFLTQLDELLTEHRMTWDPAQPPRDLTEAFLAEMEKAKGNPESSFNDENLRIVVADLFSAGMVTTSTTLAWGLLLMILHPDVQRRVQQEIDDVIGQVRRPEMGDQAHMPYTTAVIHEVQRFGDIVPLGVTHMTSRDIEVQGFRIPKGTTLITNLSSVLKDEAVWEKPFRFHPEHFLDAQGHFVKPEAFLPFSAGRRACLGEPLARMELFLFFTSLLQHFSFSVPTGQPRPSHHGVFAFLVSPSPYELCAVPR
# Experimental: as §2, §4
# [10] = Relative solubility by turbidity threshold concentration in aqueous buffers (pH 1.5, 4.5, 6.8, 7.4); format: physicochemical; details: for turbidity threshold (L, M, H) 1.4: pH 1.4 [sic] (method: SGF pH 1.5); for turbidity threshold (L, M, H) 4.5: pH 4.5 (SIF); for turbidity threshold (L, M, H) 6.8: pH 6.8 (SIF); for turbidity threshold (L, M, H) 7.4: pH 7.4 (HEPES)
# Experimental: As an indication of relative solubility, the turbidity of compounds in aqueous solutions is assessed. To assess possible compound properties in different physiological compartments, such as stomach, intestine, and blood, a series of aqueous buffers with varying pH is used. Thus each compound is diluted into four different physiologically relevant buffers and solution turbidity is measured by spectrophotometry.
# Compounds are dissolved at a concentration of 25 mM in dimethyl sulfoxide, then serially diluted 1:1 into a 96 well plate, diluting 10 times in pure dimethyl sulfoxide, with the final well of each row a dimethyl sulfoxide blank. In an assay plate, 99 μL of appropriate buffer is added to each well, and 1 μL of each sample dilution is added to the buffer, achieving a range of final total concentrations in aqueous solutions having different pH. The buffers used are Simulated Gastric Fluid (SGF-pH 1.5) 0.5M NaCl, pH 1.5; Simulated Intestinal fluid (SIF-pH 4.5 and pH 6.8) 0.05M NaH2PO4, pH 4.5 and 6.8; and Hepes Buffer (HEPES-pH 7.4) 10 mM HEPES, 150 mM NaCl, pH 7.4. Control compounds pyrene, estriol and propranolol HCl are also assessed. Plates are spun and then mixed for 1 minute, and the absorbance is read using a Tecan Safire II to read wavelengths in the visible range (490, 535, and 650 nm) at four locations per well, reflecting the degree of turbidity present. The average optical density for each wavelength in each well is graphed vs. compound concentration, and the concentration at which the curve crosses a threshold O.D. of 0.01 for each wavelength is reported as the endpoint turbidity assay result. The average of the three wavelengths is used to compare turbidity of compounds. Compounds are considered to have low solubility if the threshold concentration is <31.3 μM, moderate solubility if the threshold concentration is 31.3 μM to 250 μM, and high solubility if the threshold concentration is >250 μm.
# The following table indicates the relative solubility (L=low, M=moderate, H=high) based on turbidity threshold concentration at each pH for exemplary compounds according to the invention as indicated: […]
# [11] = read-out: Cyp IC50 2C9, CYP2C9, substrate MFC
# [12] = read-out: Cyp IC50 2C19, CYP2C19, substrate CEC
# [13] = read-out: Cyp IC50 3A4(BFC), CYP3A4, substrate BFC
# Sequence of c-Raf-1 (P04049 whole entry, looked up): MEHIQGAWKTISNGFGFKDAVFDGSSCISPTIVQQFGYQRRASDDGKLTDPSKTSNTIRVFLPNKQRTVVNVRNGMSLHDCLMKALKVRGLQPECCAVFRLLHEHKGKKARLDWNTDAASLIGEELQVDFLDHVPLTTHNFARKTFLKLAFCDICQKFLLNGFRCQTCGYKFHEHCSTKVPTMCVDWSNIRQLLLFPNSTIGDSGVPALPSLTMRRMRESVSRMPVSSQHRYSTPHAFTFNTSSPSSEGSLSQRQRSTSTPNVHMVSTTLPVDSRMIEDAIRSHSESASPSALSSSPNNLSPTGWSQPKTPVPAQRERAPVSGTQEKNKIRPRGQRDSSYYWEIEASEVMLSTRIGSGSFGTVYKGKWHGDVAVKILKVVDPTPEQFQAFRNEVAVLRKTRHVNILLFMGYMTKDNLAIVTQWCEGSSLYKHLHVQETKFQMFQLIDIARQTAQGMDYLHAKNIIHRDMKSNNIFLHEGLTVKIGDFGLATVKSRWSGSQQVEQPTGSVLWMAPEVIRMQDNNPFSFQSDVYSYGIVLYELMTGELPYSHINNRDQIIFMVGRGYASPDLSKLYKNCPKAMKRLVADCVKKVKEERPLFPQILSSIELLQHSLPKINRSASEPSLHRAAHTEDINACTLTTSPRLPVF
Structure (SMILES),IC50 [1],"IC50 [2, 11]",Biochemical activity ratio B/V600E [3],Biochemical activity ratio B/C [3],IC50 [4],IC50 [5],Biochemical activity ratio V600E/C [5],"IC50 [6, 12]","IC50 [7, 13]","IC50 ([8]; human, 15 min)",IC50 [9],"turbidity threshold (L, M, H) 1.4 [10]","turbidity threshold (L, M, H) 4.5 [10]","turbidity threshold (L, M, H) 6.8 [10]","turbidity threshold (L, M, H) 7.4 [10]",IC50 [2],IC50 [6],"IC50 ([8]; read-out: Cyp IC50 1A2, CYP1A2, substrate CEC)",IC50 [7]
"O=C(c1c(F)ccc(NS(=O)(=O)c2ccc(C(F)(F)F)cc2)c1F)c1c[nH]c2ncnc(Nc3ccccc3)c12 [P-1037, N-[2,4-Difluoro-3-(4-phenylamino-7H-pyrrolo[2,3-d]pyrimidine-5-carbonyl)-phenyl]-4-trifluoromethyl-benzenesulfonamide]",< 0.1 µM,> 10 µM,0.1-10,>10,< 0.1 µM,> 0.1 µM,>10,< 5 µM,> 10 µM,> 10 µM,> 10 µM,L (low solubility if the threshold concentration is <31.3 μM),L (low solubility if the threshold concentration is <31.3 μM),L (low solubility if the threshold concentration is <31.3 μM),L (low solubility if the threshold concentration is <31.3 μM),,,,
"CC(C)c1ncnc2[nH]cc(C(=O)c3c(F)ccc(NS(=O)(=O)c4ccc(C(F)(F)F)cc4)c3F)c12 [P-1029, N-[2,4-Difluoro-3-(4-isopropyl-7H-pyrrolo[2,3-d]pyrimidine-5-carbonyl)-phenyl]-4-trifluoromethyl-benzenesulfonamide]",< 0.1 µM,,0.1-10,>10,< 0.1 µM,> 0.1 µM,>10,,> 10 µM,,> 10 µM,M (moderate solubility if the threshold concentration is 31.3 μM to 250 μM),,,M (moderate solubility if the threshold concentration is 31.3 μM to 250 μM),5 to 10 µM,5 to 10 µM,> 10 µM,
"CCCc1ccc(S(=O)(=O)Nc2ccc(F)c(C(=O)c3c[nH]c4ncnc(Cl)c34)c2F)cc1 [P-1034, N-[3-(4-Chloro-7H-pyrrolo[2,3-d]pyrimidine-5-carbonyl)-2,4-difluoro-phenyl]-4-propyl-benzenesulfonamide]",< 0.1 µM,> 10 µM,0.1-10,0.1-10,> 0.1 µM,> 0.1 µM,>10,,,> 10 µM,> 10 µM,M (moderate solubility if the threshold concentration is 31.3 μM to 250 μM),M (moderate solubility if the threshold concentration is 31.3 μM to 250 μM),M (moderate solubility if the threshold concentration is 31.3 μM to 250 μM),M (moderate solubility if the threshold concentration is 31.3 μM to 250 μM),,5 to 10 µM,,5 to 10 µM
"CC(C)Cc1ncnc2[nH]cc(C(=O)c3c(F)ccc(NS(=O)(=O)c4ccc(C(F)(F)F)cc4)c3F)c12 [P-1015, N-[2,4-Difluoro-3-(4-isobutyl-7H-pyrrolo[2,3-d]pyrimidine-5-carbonyl)-phenyl]-4-trifluoromethyl-benzenesulfonamide]",< 0.1 µM,> 10 µM,0.1-10,>10,> 0.1 µM,> 0.1 µM,>10,> 10 µM,,> 10 µM,> 10 µM,,,,,,,,5 to 10 µM
"O=C(c1c(F)ccc(NS(=O)(=O)c2ccc(C(F)(F)F)cc2)c1F)c1c[nH]c2nccc(C(F)(F)F)c12 [P-2016, N-[2,4-Difluoro-3-(4-trifluoromethyl-1H-pyrrolo[2,3-b]pyridine-3-carbonyl)-phenyl]-4-trifluoromethyl-benzenesulfonamide]",< 0.1 µM,,0.1-10,0.1-10,> 0.1 µM,> 0.1 µM,>10,,,,,L (low solubility if the threshold concentration is <31.3 μM),L (low solubility if the threshold concentration is <31.3 μM),L (low solubility if the threshold concentration is <31.3 μM),M (moderate solubility if the threshold concentration is 31.3 μM to 250 μM),,,,
"CCCc1ccc(S(=O)(=O)Nc2ccc(F)c(C(=O)c3c[nH]c4ncnc(OCC)c34)c2F)cc1 [P-1038, N-[3-(4-Ethoxy-7H-pyrrolo[2,3-d]pyrimidine-5-carbonyl)-2,4-difluoro-phenyl]-4-propyl-benzenesulfonamide]",< 0.1 µM,,0.1-10,>10,< 0.1 µM,> 0.1 µM,>10,,,> 10 µM,> 10 µM,,,,,5 to 10 µM,5 to 10 µM,,5 to 10 µM
